Data from US6339045B1, “N-(unsubstituted or substituted)-4-substituted-6-(unsubstituted or substituted)phenoxy-2-pyridinecarboxamides or thiocarboxamides, processes for producing the same, and herbicides” (Kureha Kagaku Kogyo Kabushiki Kaisha, priority 1995, dated 2002).

What was measured:
Assay in all cases: Herbicidal effect by foliage and soil treatment
Assay type in all cases: in vivo
Details in all cases: 10 g ai/10a, evaluated after 14 days
[1] = system: sicklepod (Cassia obtusifolia)
Outline: (§1)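 Potted seedlings at cotyledon-to-bifoliate stage were sprayed with compound in Tween 20/water at a predetermined rate and grown in a greenhouse at 19 to 25° C. Growth was rated against untreated plants after 14 days.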

[2] = system: ivyleafspeedwell (Veronica hederaefolia)
Outline: as §1

[3] = system: cleavers (Galium aparine)
Outline: as §1

[4] = system: common chickweed (Stellaria media)
Outline: as §1

[5] = system: field bindweed (Convolvulus arvensis)
Outline: as §1

[6] = system: black nightshade (Solanum nigrum)
Outline: as §1

[7] = system: redroot pigweed (Amaranthus retroflexus)
Outline: as §1

[8] = system: common blackjack (Bidens pilosa)
Outline: as §1

[9] = system: wild chamomile (Matricaria chamomilla)
Outline: as §1

[10] = system: velvetleaf (Abutilon theophrasti)
Outline: as §1

[11] = system: kediock (Sinapis arvensis)
Outline: as §1

| SMILES | herbicidal activity rating, CO (Cassia obtusifolia) [1] | herbicidal activity rating, VH (Veronica hederaefolia) [2] | herbicidal activity rating, GA (Galium aparine) [3] | herbicidal activity rating, SM (Stellaria media) [4] | herbicidal activity rating, CA (Convolvulus arvensis) [5] | herbicidal activity rating, SN (Solanum nigrum) [6] | herbicidal activity rating, AR (Amaranthus retroflexus) [7] | herbicidal activity rating, BP (Bidens pilosa) [8] | herbicidal activity rating, MC (Matricaria chamomilla) [9] | herbicidal activity rating, AT (Abutilon theophrasti) [10] | herbicidal activity rating, SA (Sinapis arvensis) [11] |
| --- | --- | --- | --- | --- | --- | --- | --- | --- | --- | --- | --- |
| COc1cc(Oc2cccc(C(F)(F)F)c2)nc(C(=O)NN(C)C)c1 [Compound I-109] | 5 (percentage of weeds killed was not less than 80%) | 5 (percentage of weeds killed was not less than 80%) | 5 (percentage of weeds killed was not less than 80%) | 4 (percentage of weeds killed was not less than 60% and less than 80%) | 4 (percentage of weeds killed was not less than 60% and less than 80%) | 5 (percentage of weeds killed was not less than 80%) | 5 (percentage of weeds killed was not less than 80%) | 5 (percentage of weeds killed was not less than 80%) | 4 (percentage of weeds killed was not less than 60% and less than 80%) | 5 (percentage of weeds killed was not less than 80%) | 5 (percentage of weeds killed was not less than 80%) |
| COc1cc(Oc2cccc(C(F)(F)F)c2)nc(C(N)=O)c1 [Compound I-123, 4-methoxy-6-{3-(trifluoromethyl)phenoxy}-2-pyridine carboxamide] | 2 (percentage of weeds killed was not less than 20% and less than 40%) | 5 (percentage of weeds killed was not less than 80%) | 5 (percentage of weeds killed was not less than 80%) | 5 (percentage of weeds killed was not less than 80%) | 4 (percentage of weeds killed was not less than 60% and less than 80%) | 5 (percentage of weeds killed was not less than 80%) | 5 (percentage of weeds killed was not less than 80%) | 2 (percentage of weeds killed was not less than 20% and less than 40%) | 1 (percentage of weeds killed was less than 20%) | 3 (percentage of weeds killed was not less than 40% and less than 60%) | 5 (percentage of weeds killed was not less than 80%) |
| COc1cc(Oc2cccc(C(F)(F)F)c2)nc(C(=O)NNC(C)(C)C)c1 [Compound I-126] | 5 (percentage of weeds killed was not less than 80%) | 5 (percentage of weeds killed was not less than 80%) | 5 (percentage of weeds killed was not less than 80%) | 5 (percentage of weeds killed was not less than 80%) | 4 (percentage of weeds killed was not less than 60% and less than 80%) | 5 (percentage of weeds killed was not less than 80%) | 5 (percentage of weeds killed was not less than 80%) | 5 (percentage of weeds killed was not less than 80%) | 4 (percentage of weeds killed was not less than 60% and less than 80%) | 5 (percentage of weeds killed was not less than 80%) | 5 (percentage of weeds killed was not less than 80%) |
| COc1cc(Oc2cccc(C(F)(F)F)c2)nc(C(=O)NCS(C)(=O)=O)c1 [Compound I-127] | 5 (percentage of weeds killed was not less than 80%) | 5 (percentage of weeds killed was not less than 80%) | 5 (percentage of weeds killed was not less than 80%) | 5 (percentage of weeds killed was not less than 80%) | 5 (percentage of weeds killed was not less than 80%) | 5 (percentage of weeds killed was not less than 80%) | 5 (percentage of weeds killed was not less than 80%) | 5 (percentage of weeds killed was not less than 80%) | 4 (percentage of weeds killed was not less than 60% and less than 80%) | 5 (percentage of weeds killed was not less than 80%) | 5 (percentage of weeds killed was not less than 80%) |
| CCN(CC)C(=O)c1cc(OC)cc(Oc2cccc(C(F)(F)F)c2)n1 [Compound I-200, N,N-diethyl-4-methoxy-6-{3-(trifluoromethyl)phenoxy}-2-pyridine carboxamide] | 5 (percentage of weeds killed was not less than 80%) | 5 (percentage of weeds killed was not less than 80%) | 5 (percentage of weeds killed was not less than 80%) | 5 (percentage of weeds killed was not less than 80%) | 5 (percentage of weeds killed was not less than 80%) | 5 (percentage of weeds killed was not less than 80%) | 5 (percentage of weeds killed was not less than 80%) | 2 (percentage of weeds killed was not less than 20% and less than 40%) | 4 (percentage of weeds killed was not less than 60% and less than 80%) | 5 (percentage of weeds killed was not less than 80%) | 5 (percentage of weeds killed was not less than 80%) |
| CCN(C)C(=O)c1cc(OC)cc(Oc2cccc(C(F)(F)F)c2)n1 [Compound I-201] | 5 (percentage of weeds killed was not less than 80%) | 5 (percentage of weeds killed was not less than 80%) | 5 (percentage of weeds killed was not less than 80%) | 5 (percentage of weeds killed was not less than 80%) | 5 (percentage of weeds killed was not less than 80%) | 5 (percentage of weeds killed was not less than 80%) | 5 (percentage of weeds killed was not less than 80%) | 2 (percentage of weeds killed was not less than 20% and less than 40%) | 2 (percentage of weeds killed was not less than 20% and less than 40%) | 4 (percentage of weeds killed was not less than 60% and less than 80%) | 5 (percentage of weeds killed was not less than 80%) |
| CNN(C)C(=O)c1cc(OC)cc(Oc2cccc(C(F)(F)F)c2)n1 [Compound I-202, N-methyl-N-methylamino-4-methoxy-6-{3-(trifluoromethyl)phenoxy}-2-pyridine carboxamide] | 5 (percentage of weeds killed was not less than 80%) | 5 (percentage of weeds killed was not less than 80%) | 5 (percentage of weeds killed was not less than 80%) | 5 (percentage of weeds killed was not less than 80%) | 4 (percentage of weeds killed was not less than 60% and less than 80%) | 5 (percentage of weeds killed was not less than 80%) | 5 (percentage of weeds killed was not less than 80%) | 4 (percentage of weeds killed was not less than 60% and less than 80%) | 3 (percentage of weeds killed was not less than 40% and less than 60%) | 4 (percentage of weeds killed was not less than 60% and less than 80%) | 5 (percentage of weeds killed was not less than 80%) |
| COc1cc(Oc2cccc(C(F)(F)F)c2)nc(C(=O)N(C)OC)c1 [Compound I-203] | 5 (percentage of weeds killed was not less than 80%) | 5 (percentage of weeds killed was not less than 80%) | 5 (percentage of weeds killed was not less than 80%) | 4 (percentage of weeds killed was not less than 60% and less than 80%) | 4 (percentage of weeds killed was not less than 60% and less than 80%) | 5 (percentage of weeds killed was not less than 80%) | 5 (percentage of weeds killed was not less than 80%) | 3 (percentage of weeds killed was not less than 40% and less than 60%) | 2 (percentage of weeds killed was not less than 20% and less than 40%) | 4 (percentage of weeds killed was not less than 60% and less than 80%) | 5 (percentage of weeds killed was not less than 80%) |
